Patent US10562857B2 (AFASCI, Inc., priority 2015, dated 2020)
“Also recorded” adds a separate entry of the source.

Assays:
[1] = tested on: baclofen-induced absence seizures in mice; experiment: Baclofen-induced absence seizures in mice (EEG spike wave discharges); format: in vivo, mouse; conditions: 30 mg/kg I.P. 30 min before baclofen
Source text: FIG. 11. Effects of EXAMPLE-128 on baclofen-induced absence seizures in mice.
Absence seizures, especially childhood absence epilepsy, is characterized by a brief loss of consciousness and muscle tone as the primary manifestations. Ethosuximide, a weak and non-selective T-type calcium channel inhibitor, is effective in treating only absence seizures (Huguenard J R, 2002); while the GABAB baclofen exacerbates transgenic absence seizure models and alone induces absence seizures in wild-type animals (Han et al., 2012). […] The baclofen-induced brain seizure activity mimics absence seizures.

[2] = tested on: incision-induced pain in mice; experiment: Incision-induced acute pain in mice, von Frey test; format: in vivo, mouse; conditions: 30 mg/kg I.P.
Experimental: FIG. 9. Effects of EXAMPLE-116, -118 or ML218 (a reference compound) on incision-induced acute pain in mice (C57BL/6, male, ˜2 months old; n=8 mice per treatment group). Mechanical pain threshold assessment (von Frey monofilament test) of the mice's incision left hindpaws. Each mouse received either EXAMPLE-116, -118, or ML218 (as a reference compound, each 30 mg/kg, I.P.) or vehicle (2% DMSO in 0.5% HPC, I.P.). Mechanical pain responses were measured at 0.5, 1, 2, 4, and 5 hours after treatment.
To further confirm the Cav3 modulator effects on acute pain and neurogenic inflammatory pain, an incision-pain mode in mice was used. Postoperative pain model induced by a deep incision in the hindpaw produces robust mechanical allodynia (Pogatzki et al., 2003). Mechanical pain thresholds were assessed using von Frey monofilament test of the incised left hindpaws. Each mouse received either EXAMPLE-116, -118, ML218 (as a reference compound, each 30 mg/kg, I.P.) or vehicle (2% DMSO in 0.5% HPC, I.P., n=8 mice per treatment group). Mechanical pain responses were measured at 0.5, 1, 2, 4, and 5 hours after treatment.

| SMILES | spike wave discharges (SWD) occurring frequency [1] | mechanical pain threshold, incision-induced pain [2] |
| --- | --- | --- |
| CC(C)(C)NC(=O)CN1CCC2(CC1)CC2NC(=O)c1cc(F)cc(Cl)c1 (single isomer, unassigned) [Example 128, (S)—N-(6-(2-(tert-Butylamino)-2-oxoethyl)-6-azaspiro[2.5]octan-1-yl)-3-chloro-5-fluorobenzamide or (R)—N-(6-(2-(tert-Butylamino)-2-oxoethyl)-6-azaspiro[2.5]octan-1-yl)-3-chloro-5-fluorobenzamide] | significantly reduced the SWD occurring frequence; also recorded: significantly reduced the SWD occurring frequency | – |
| CC(C)(C)CCN1C[C@@H]2[C@@H](CNC(=O)c3cc(Cl)cc(Cl)c3)[C@@H]2C1 [ML218, 3,5-Dichloro-N-[[(1α,5α,6-exo,6α)-3-(3,3-dimethylbutyl)-3-azabicyclo[3.1.0]hex-6-yl]methyl]benzamide, reference compound] | – | inhibited incision-induced inflammatory pain |
